Data as given in patent publication US20080064754A1, “Amino ion releasing hydrogen bonded molecule” (priority 2006, published 2008).

Legend:
[1] = test system: microcirculation; type: in vivo
Source text: This acceleration of microcirculation has many positive benefits.

[2] = test system: wounds, burns (of all degrees) and several types of chronic lesions; assay: Wound healing, anecdotal preliminary experiment; type: in vivo
[3] = test system: inflammation; assay: Anti-inflammatory, anecdotal preliminary experiment; type: in vivo; conditions: all forms of delivery
[4] = test system: laboratory mice; assay: LD-50 animal safety studies; type: in vivo; conditions: oral feeding, intravenous infusion and inhalation, up to 50 percent liquid or 100 percent powder
Protocol: Applicant has tested the final reaction product in LD-50 animal (laboratory mice) studies. These studies were conducted with oral feeding, intravenous infusion and inhalation. […] (Applicant's testing facility was unable to kill the mice with very high concentrations (up to 50 percent liquid or 100 percent powder) of Applicant's Tri-Amino.

[5] = Hygroscopicity of the powder; type: physicochemical
Source text: Tri-Amino is a hygroscopic powder and as such is a valuable additive to moisturizing cosmetics.

[6] = cited from earlier work

Compound	toxic side effects on acceleration of microcirculation ([1]; in vivo)	vaso-dilating qualities ([1]; topically or internally, anecdotal, preliminary)	healing of wounds, burns and chronic lesions [2]	lesions healed [2]	anti-inflammatory qualities [3]	toxicity in LD-50 studies [4]	hygroscopicity [5]	solubility in water [6]
2-amino 5-triaminoguanidovalericbenzoicdiacetate [Tri-Amino]	without toxic side effects	exhibited vaso-dilating qualities	ability to aid and accelerate the healing of wounds, burns (of all degrees) and several types of chronic lesions	radiation burns (third degree with complete suppression of scar formation), squamous cell carcinoma, basal cell carcinoma, psoriasis, venous stasis ulcers, decubitus ulcers (bed sores), deep surgical wounding (with suppression of scar formation), oral & genital herpes	shown anti-inflammatory qualities	no toxicity what-so-ever	hygroscopic	
Nc1ccc(C(=O)O)cc1 [PABA, p-aminobenzoic acid]								slightly soluble in water
